According to patent publication US10597388B2, “Pyridazinone herbicides” (FMC CORPORATION, priority 2014, dated 2020):

Key:
Experiment in all cases: Test D controlled growth environment herbicide test, pre- and postemergence
Format in all cases: in vivo
[1] = test system: Russian thistle (Salsola kali)
Summary of the method: (§1)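 Species sown in silt loam and sprayed preemergence, or grown in peat-based medium to 2–18 cm (1- to 4-leaf stage) and sprayed postemergence, with compounds in non-phytotoxic solvent plus surfactant. Visual injury scored versus controls after 14–21 d in a controlled environment, 0 (no effect) to 100 (complete control).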

[2] = test system: blackgrass (Alopecurus myosuroides)
Summary of the method: as §1

[3] = test system: bromegrass, downy (downy bromegrass, Bromus tectorum)
Summary of the method: as §1

[4] = test system: chamomile (scentless chamomile, Matricaria inodora)
Summary of the method: as §1

[5] = test system: chickweed (common chickweed, Stellaria media)
Summary of the method: as §1

[6] = test system: deadnettle (henbit deadnettle, Lamium amplexicaule)
Summary of the method: as §1

[7] = test system: field violet (Viola arvensis)
Summary of the method: as §1

kochia (Kochia scoparia) = test system: kochia (Kochia scoparia)
Summary of the method: as §1

[8] = test system: lambsquarters (Chenopodium album)
Summary of the method: as §1

[9] = test system: radish, wild (wild radish, Raphanus raphanistrum)
Summary of the method: as §1

[10] = test system: ryegrass, Italian (Italian ryegrass, Lolium multiflorum)
Summary of the method: as §1

[11] = test system: speedwell (bird's-eye speedwell, Veronica persica)
Summary of the method: as §1

[12] = test system: wheat, winter (winter wheat, Triticum aestivum)
Summary of the method: as §1

[13] = test system: windgrass (Apera spica-venti)
Summary of the method: as §1

[14] = Postemergence, 31 g ai/ha, scale 0 to 100 (0 no effect, 100 complete control)
[15] = Postemergence, 125 g ai/ha, visual rating on scale 0 (no effect) to 100 (complete control), 14 to 21 d
[16] = Postemergence, 250 g ai/ha, scale 0 to 100 (0 no effect, 100 complete control)
[17] = Preemergence, 62 g ai/ha, scale 0 to 100 (0 no effect, 100 complete control)
[18] = Preemergence, 125 g ai/ha, scale 0 to 100 (0 no effect, 100 complete control)
[19] = Preemergence, 250 g ai/ha, scale 0 to 100, 0 no effect, 100 complete control
[20] = postemergence, 62 g ai/ha, scale 0 to 100, 0 no effect, 100 complete control

## COC(=O)Oc1c(C)nn(C)c(=O)c1-c1c(C)sc2ccc(C)cc12 [Compound 80]
[1]; [14]
  Russian Thistle plant response rating: 70
[1]; [15]
  Plant response rating, Russian Thistle: 80
[1]; [16]
  Plant response rating, Russian Thistle: 80
[1]; Preemergence, 31 g ai/ha
  Plant response rating (scale of 0 to 100), Russian Thistle: 10
[1]; [17]
  Plant response rating, Russian Thistle: 95
[1]; [18]
  Plant response rating, Russian Thistle: 95
[1]; [19]
  Plant response rating, Russian Thistle: 100
[1]; [20]
  Plant response rating, Russian Thistle: 70
[2]; [14]
  Blackgrass plant response rating: 75
[2]; [15]
  Plant response rating, Blackgrass: 90
[2]; [16]
  Plant response rating, Blackgrass: 90
[2]; Preemergence, 31 g ai/ha
  Plant response rating (scale of 0 to 100), Blackgrass: 70
[2]; [17]
  Plant response rating, Blackgrass: 75
[2]; [18]
  Plant response rating, Blackgrass: 80
[2]; [19]
  Plant response rating, Blackgrass: 85
[2]; [20]
  Plant response rating, Blackgrass: 80
[3]; [14]
  Bromegrass, Downy plant response rating: 55
[3]; [15]
  Plant response rating, Bromegrass, Downy: 70
[3]; [16]
  Plant response rating, Bromegrass, Downy: 75
[3]; Preemergence, 31 g ai/ha
  Plant response rating (scale of 0 to 100), Bromegrass, Downy: 30
[3]; [17]
  Plant response rating, Bromegrass, Downy: 35
[3]; [18]
  Plant response rating, Bromegrass, Downy: 75
[3]; [19]
  Plant response rating, Bromegrass, Downy: 85
[3]; [20]
  Plant response rating, Bromegrass, Downy: 65
[4]; [14]
  Chamomile plant response rating: 80
[4]; [15]
  Plant response rating, Chamomile: 100
[4]; [16]
  Plant response rating, Chamomile: 100
[4]; Preemergence, 31 g ai/ha
  Plant response rating (scale of 0 to 100), Chamomile: 95
[4]; [17]
  Plant response rating, Chamomile: 100
[4]; [18]
  Plant response rating, Chamomile: 100
[4]; [19]
  Plant response rating, Chamomile: 100
[4]; [20]
  Plant response rating, Chamomile: 95
[5]; [14]
  Chickweed plant response rating: 90
[5]; [15]
  Plant response rating, Chickweed: 100
[5]; [16]
  Plant response rating, Chickweed: 100
[5]; Preemergence, 31 g ai/ha
  Plant response rating (scale of 0 to 100), Chickweed: 100
[5]; [17]
  Plant response rating, Chickweed: 100
[5]; [18]
  Plant response rating, Chickweed: 100
[5]; [19]
  Plant response rating, Chickweed: 100
[5]; [20]
  Plant response rating, Chickweed: 100
[6]; [14]
  Deadnettle plant response rating: 35
[6]; [15]
  Plant response rating, Deadnettle: 35
[6]; [16]
  Plant response rating, Deadnettle: 50
[6]; Preemergence, 31 g ai/ha
  Plant response rating (scale of 0 to 100), Deadnettle: 55
[6]; [17]
  Plant response rating, Deadnettle: 65
[6]; [18]
  Plant response rating, Deadnettle: 70
[6]; [19]
  Plant response rating, Deadnettle: 75
[6]; [20]
  Plant response rating, Deadnettle: 25
[7]; [14]
  Field Violet plant response rating: 90
[7]; [15]
  Plant response rating, Field Violet: 95
[7]; [16]
  Plant response rating, Field Violet: 100
[7]; Preemergence, 31 g ai/ha
  Plant response rating (scale of 0 to 100), Field Violet: 55
[7]; [17]
  Plant response rating, Field Violet: 95
[7]; [18]
  Plant response rating, Field Violet: 100
[7]; [19]
  Plant response rating, Field Violet: 95
[7]; [20]
  Plant response rating, Field Violet: 85
Kochia (Kochia scoparia); [14]
  Kochia plant response rating: 100
Kochia (Kochia scoparia); [15]
  Plant response rating, Kochia: 100
Kochia (Kochia scoparia); [16]
  Plant response rating, Kochia: 100
Kochia (Kochia scoparia); Preemergence, 31 g ai/ha
  Plant response rating (scale of 0 to 100), Kochia: 35
Kochia (Kochia scoparia); [17]
  Plant response rating, Kochia: 75
Kochia (Kochia scoparia); [18]
  Plant response rating, Kochia: 100
Kochia (Kochia scoparia); [19]
  Plant response rating, Kochia: 100
Kochia (Kochia scoparia); [20]
  Plant response rating, Kochia: 100
[8]; [14]
  Lambsquarters plant response rating: 95
[8]; [15]
  Plant response rating, Lambsquarters: 100
[8]; [16]
  Plant response rating, Lambsquarters: 100
[8]; Preemergence, 31 g ai/ha
  Plant response rating (scale of 0 to 100), Lambsquarters: 100
[8]; [17]
  Plant response rating, Lambsquarters: 100
[8]; [18]
  Plant response rating, Lambsquarters: 100
[8]; [19]
  Plant response rating, Lambsquarters: 100
[8]; [20]
  Plant response rating, Lambsquarters: 100
[9]; [14]
  Radish, Wild plant response rating: 10
[9]; [15]
  Plant response rating, Radish, Wild: 50
[9]; [16]
  Plant response rating, Radish, Wild: 65
[9]; Preemergence, 31 g ai/ha
  Plant response rating (scale of 0 to 100), Radish, Wild: 20
[9]; [17]
  Plant response rating, Radish, Wild: 75
[9]; [18]
  Plant response rating, Radish, Wild: 100
[9]; [19]
  Plant response rating, Radish, Wild: 100
[9]; [20]
  Plant response rating, Radish, Wild: 50
[10]; [14]
  Ryegrass, Italian plant response rating: 85
[10]; [15]
  Plant response rating, Ryegrass, Italian: 98
[10]; [16]
  Plant response rating, Ryegrass, Italian: 100
[10]; Preemergence, 31 g ai/ha
  Plant response rating (scale of 0 to 100), Ryegrass, Italian: 90
[10]; [17]
  Plant response rating, Ryegrass, Italian: 90
[10]; [18]
  Plant response rating, Ryegrass, Italian: 95
[10]; [19]
  Plant response rating, Ryegrass, Italian: 100
[10]; [20]
  Plant response rating, Ryegrass, Italian: 95
[11]; [14]
  Speedwell plant response rating: 65
[11]; [15]
  Plant response rating, Speedwell: 85
[11]; [16]
  Plant response rating, Speedwell: 80
[11]; Preemergence, 31 g ai/ha
  Plant response rating (scale of 0 to 100), Speedwell: 65
[11]; [17]
  Plant response rating, Speedwell: 95
[11]; [18]
  Plant response rating, Speedwell: 95
[11]; [19]
  Plant response rating, Speedwell: 100
[11]; [20]
  Plant response rating, Speedwell: 75
[12]; [14]
  Wheat, Winter plant response rating: 0
[12]; [15]
  Plant response rating, Wheat, Winter: 5
[12]; [16]
  Plant response rating, Wheat, Winter: 15
[12]; Preemergence, 31 g ai/ha
  Plant response rating (scale of 0 to 100), Wheat, Winter: 0
[12]; [17]
  Plant response rating, Wheat, Winter: 0
[12]; [18]
  Plant response rating, Wheat, Winter: 0
[12]; [19]
  Plant response rating, Wheat, Winter: 20
[12]; [20]
  Plant response rating, Wheat, Winter: 0
[13]; [14]
  Windgrass plant response rating: 75
[13]; [15]
  Plant response rating, Windgrass: 95
[13]; [16]
  Plant response rating, Windgrass: 98
[13]; Preemergence, 31 g ai/ha
  Plant response rating (scale of 0 to 100), Windgrass: 75
[13]; [17]
  Plant response rating, Windgrass: 90
[13]; [18]
  Plant response rating, Windgrass: 95
[13]; [19]
  Plant response rating, Windgrass: 98
[13]; [20]
  Plant response rating, Windgrass: 90
